Measurements from US20250082695A1, “USE OF GLYCEROL FOR INCREASING BUTYRATE PRODUCTION BY BACTERIA IN A CONSORTIUM” (PHARMABIOME AG, priority 2019, published 2025).

Columns and labels:
Format in all cases: cell-based
[1] = tested on: bacterial consortium PB002; experiment: Continuous co-culture of consortium PB002 in a bioreactor, daily metabolite concentrations before and after glycerol supplementation; details: PB002, addition of 30 mM glycerol at day 38 of continuous culture
Description: FIG. 1: Daily metabolite concentration of the continuously co-cultured bacterial consortium PB002 in a bioreactor before and after the supplementation of glycerol. Day of sampling from day 30 to day 55 after inoculation are represented on the x-axis and the concentrations of acetate, propionate, butyrate, formate, lactate, and succinate indicated in mM on the y-axis.
The concentrations of the produced metabolites were quantified by refractive index detection HPLC (Thermo Scientific Accela™, ThermoFisher Scientific; HPLC-RI)). […] Bacteria cultures to be analyzed were centrifuged at 14.000-x g for 10 min at 4° C. Filter-sterilized ([…]) supernatants were analyzed. […] Peaks were analyzed using AgilentEzChrome Elite software (Version: 3.3.2 SP2, Agilent Technologies, Inc. Pleasanton, USA). […]
(§1) The bioreactor was consecutively operated at pH 6.0 for 24 h in order to allow growth of primary degraders and subsequent consumption of the produced intermediate metabolites. Growth was monitored by base consumption and optical density. Metabolites were monitored using HPLC-RI as described above. […]
The consortium PB002 was continuously cultured in a bioreactor during 55 days. Metabolite concentrations were measured daily before and after glycerol supplementation (addition of 30 mM glycerol) at day 38.

[2] = tested on: butyrate producing strains of group A6; experiment: qPCR quantification of absolute abundances of PB002 strains during continuous culture; details: glycerol supplementation
Description: FIG. 2: Absolute abundances of all strains of the continuously cultured consortium PB002 in a bioreactor before and after the supplementation of glycerol. Abundances were quantified using qPCR and are indicated in copies of the 16S rRNA gene/ml of culture for the strains representing A1, A2, A3, A4, A5, A6, A7, A8, and A9.
To test maintenance of all bacterial strains of exemplary consortia PB002 and PB010 in the culture over time, qPCR quantification of the single strains of each consortium was performed using the primers listed in Table 3.
DNA from pellets of the fermentation effluent was extracted using the FastDNA™ SPIN Kit for Soil (MP Bio). Genomic DNA extracts were 10-fold diluted using DNA-free H2O. qPCRs were performed using Mastermix SYBR® green 2× and LowRox (Kapa Biosystems), primers (10 μM) and DNA-free H2O were used in a ABI 7500 FAST thermal cycler (Applied Biosystems) as recommended by the producer and quantified using standards of amplified whole 16S rRNA gene amplicon sequences of the strains cloned into the pGEMT easy vector (Promega, Madison WI, USA). Amplification of the whole 16S rRNA gene was performed with a combination of whole 16S rRNA gene amplification primers using one forward and one reverse primer from the primers listed in Table 4. qPCR quantification of the single strains is shown in copies of genomic 16S rRNA gene per ml of culture (FIG. 2). […]

[3] = tested on: bacterial consortium PB010; experiment: Continuous co-culture of consortium PB010 in bioreactors with and without glycerol, absolute metabolite concentrations; details: PB010, medium with 30 mM glycerol vs without, day 8 after inoculation
Description: FIG. 4: Absolute metabolite concentration of the continuously co-cultured bacterial consortium PB010 in a bioreactor at day 8 after inoculation: (1) cultured in a culture medium without glycerol, (2) cultured in a culture medium supplemented with glycerol. Absolute metabolites of the two reactors are represented on the x-axis and the concentrations of acetate, propionate, and butyrate are indicated in mM on the y-axis.
The concentrations of the produced metabolites were quantified by refractive index detection HPLC (Thermo Scientific Accela™, ThermoFisher Scientific; HPLC-RI)). HPLC-RI analysis was performed using a SecurityGuard Cartridges Carbo-H (4×3.0 mm) (Phenomenex, Torrence, USA) as guard-column connected to a Rezex ROA-Organic Acid H+ column (300×7.8 mm) (Phenomenex). Bacteria cultures to be analyzed were centrifuged at 14.000-x g for 10 min at 4° C. Filter-sterilized ([…]) supernatants were analyzed. Injection volume for each sample was […]. […] Peaks were analyzed using AgilentEzChrome Elite software (Version: 3.3.2 SP2, Agilent Technologies, Inc. Pleasanton, USA). […]
as §1

[4] = tested on: bacterial consortium PB002; experiment: Continuous co-culture, relative end metabolite concentrations on day 2 and 8 (glycerol supplemented after day 2), PB002; details: PB002 (n=2), glycerol supplemented after day 2, day 8 vs day 2
Method: (§2) FIG. 5: Relative end metabolite concentration of the continuously co-cultured bacterial consortia PB002 (n=2) and PB010 (n=3) in bioreactors on day 2 and 8 of co-cultivation. All bioreactors were cultivated for 48 hours in a medium without glycerol.
(§3) The bacterial consortium PB002 and the bacterial consortium PB010 were continuously cultured in bioreactors. Relative end metabolite concentrations were determined on day 2 and 8 of co-cultivation.
(§4) All bioreactors were cultivated for 48 hours in a medium without glycerol.

[5] = tested on: bacterial consortium PB010; experiment: Continuous co-culture, relative end metabolite concentrations on day 2 and 8 (glycerol supplemented after day 2), PB010; details: PB010 (n=3), glycerol supplemented after day 2, day 8 vs day 2
Method: as §2, §3, §4

OCC(O)CO [glycerol]
accumulation of the intermediate metabolites formate, lactate, succinate [1]: no accumulation | butyrate production of the consortium [1]: enhanced butyrate production immediately | abundance of butyrate producing strains of group A6 (16S rRNA gene copies/ml) [2]: positively affects abundance | accumulation of succinate, lactate or formate [3]: no accumulation | butyrate production of the consortium [3]: stimulates butyrate production | butyrate production (relative end metabolite concentration) [4]: increase in butyrate production | butyrate production (relative end metabolite concentration) [5]: increase in butyrate production
